From patent US20120121591A1 (priority 2009, published 2012)
pIC50: −log10 of the molar value. Like-named read-outs stand apart in the source and are kept apart here.

Key:
Format in all cases: cell-based
[1] = system: IFN-g secretion from T cells in human whole blood
[2] = system: IL-2 secretion from T cells in human whole blood; conditions: for IC50: read-out: WB (IL-2) IC50 (nM, Avg)
[3] = target: hKv1.3 (Homo sapiens, UniProt P22001); test: cell-based; conditions: Kv1.3 (IWQ) IC50 (nM, Avg)
[4] = read-out: WB (IFNg) IC50 (nM, Avg)

Chain of hKv1.3 (P22001 whole entry): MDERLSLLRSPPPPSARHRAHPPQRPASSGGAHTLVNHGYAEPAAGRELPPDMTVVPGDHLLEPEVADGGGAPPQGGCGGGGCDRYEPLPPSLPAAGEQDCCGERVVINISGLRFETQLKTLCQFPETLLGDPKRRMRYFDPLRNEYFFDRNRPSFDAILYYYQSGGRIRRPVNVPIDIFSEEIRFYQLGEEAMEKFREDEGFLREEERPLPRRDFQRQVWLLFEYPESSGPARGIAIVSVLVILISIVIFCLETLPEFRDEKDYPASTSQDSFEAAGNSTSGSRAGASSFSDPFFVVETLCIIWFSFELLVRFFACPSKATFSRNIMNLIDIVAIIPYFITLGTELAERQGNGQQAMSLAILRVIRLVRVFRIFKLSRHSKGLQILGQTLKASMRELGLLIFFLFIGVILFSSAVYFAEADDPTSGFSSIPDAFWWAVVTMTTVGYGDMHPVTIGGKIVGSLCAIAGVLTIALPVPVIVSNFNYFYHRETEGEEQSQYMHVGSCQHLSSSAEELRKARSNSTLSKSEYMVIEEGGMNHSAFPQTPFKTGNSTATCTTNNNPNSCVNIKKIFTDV

Row | SMILES | IC50 [1, 4] | IC50 [2] | IC50 [3] | IC50 ([1]; read-out: WB (IFNg) IC5- (nM, Avg)) | pIC50 ([2]; read-out: WB (IL-2) IC50)
1 | CC[C@H](C)[C@@H]1NC(=O)[C@@H](NC(=O)[C@H](CO)NC(=O)[C@@H](N)CCCNC(=N)N)CSSC[C@@H](C(=O)O)NC(=O)[C@H]([C@@H](C)O)NC(=O)CNC(=O)[C@@H]2CSSC[C@@H]3NC(=O)[C@H](CCCCN)NC(=O)[C@H](Cc4ccccc4)NC(=O)[C@H](C)NC(=O)[C@H]([C@@H](C)O)NC(=O)[C@H](CSSC[C@H](NC(=O)[C@H](Cc4cccc5ccccc45)NC(=O)[C@H](CO)NC(=O)[C@H](CC(C)C)NC(=O)[C@H](CCCNC(=N)N)NC(=O)[C@H](Cc4ccc(O)cc4)NC(=O)[C@H](CCCCN)NC(=O)[C@H](CCSC)NC(=O)[C@H](CO)NC(=O)[C@H](Cc4c[nH]cn4)NC(=O)[C@H](CCCCN)NC3=O)C(=O)N[C@@H](CCCNC(=N)N)C(=O)N[C@@H](CCCCN)C(=O)N[C@@H]([C@@H](C)O)C(=O)N2)NC(=O)[C@H](CCCNC(=N)N)NC(=O)[C@H](CO)NC(=O)[C@H](CCCCN)NC(=O)[C@@H]2CCCN2C(=O)[C@H]([C@@H](C)CC)NC(=O)[C@H]([C@@H](C)O)NC(=O)[C@H](CC(=O)O)NC1=O [[Lys16,1-Na127]ShK] | 5.68 nM | 0.924 nM | 0.113 nM |  | 
2 | CCCC[C@@H]1NC(=O)[C@H](CO)NC(=O)[C@H](Cc2c[nH]cn2)NC(=O)[C@H](CCCCN)NC(=O)[C@@H]2CSSC[C@@H]3NC(=O)[C@H]([C@@H](C)O)NC(=O)[C@H](CCCNC(=N)N)NC(=O)[C@H](CCCNC(=N)N)NC(=O)[C@H](CSSC[C@H](NC(=O)[C@H](CCCNC(=N)N)NC(=O)[C@H](CO)NC(=O)[C@H](CCCCN)NC(=O)[C@@H]4CCCN4C(=O)[C@H]([C@@H](C)CC)NC(=O)[C@H]([C@@H](C)O)NC(=O)[C@H](CC(=O)O)NC(=O)[C@H]([C@@H](C)CC)NC(=O)[C@@H](NC(=O)[C@H](CO)NC(=O)[C@@H](N)CCCNC(=N)N)CSSC[C@@H](C(N)=O)NC(=O)[C@H]([C@@H](C)O)NC(=O)CNC3=O)C(=O)N[C@@H]([C@@H](C)O)C(=O)N[C@@H](C)C(=O)N[C@@H](C)C(=O)N[C@@H](CCCCN)C(=O)N2)NC(=O)[C@H](Cc2ccccc2)NC(=O)[C@H](CO)NC(=O)[C@H](CC(C)C)NC(=O)[C@H](CCCNC(=N)N)NC(=O)[C@H](Cc2ccc(O)cc2)NC(=O)[C@H](CCCCN)NC1=O [[Ala15, Lys16, Nle21,Arg30]ShK-amide] | 1.71 nM | 1.35 nM | 0.329 nM |  | 
3 | CC[C@H](C)[C@@H]1NC(=O)[C@@H](NC(=O)[C@H](CO)NC(=O)[C@@H](N)CCCNC(=N)N)CSSC[C@@H](C(N)=O)NC(=O)[C@H]([C@@H](C)O)NC(=O)CNC(=O)[C@@H]2CSSC[C@@H]3NC(=O)[C@H](CCCCN)NC(=O)[C@H](Cc4ccccc4)NC(=O)[C@H](C)NC(=O)[C@H]([C@@H](C)O)NC(=O)[C@H](CSSC[C@H](NC(=O)[C@H](Cc4ccccc4)NC(=O)[C@H](CO)NC(=O)[C@H](CC(C)C)NC(=O)[C@H](CCCNC(=N)N)NC(=O)[C@H](Cc4ccc(O)cc4)NC(=O)[C@H](CCCCN)NC(=O)[C@H]([C@@H](C)O)NC(=O)[C@H](CO)NC(=O)[C@H](Cc4c[nH]cn4)NC(=O)[C@H](CCCCN)NC3=O)C(=O)N[C@@H](CCCNC(=N)N)C(=O)N[C@@H](CCCCN)C(=O)N[C@@H]([C@@H](C)O)C(=O)N2)NC(=O)[C@H](CCCNC(=N)N)NC(=O)[C@H](CO)NC(=O)[C@H](CCCCN)NC(=O)[C@@H]2CCCN2C(=O)[C@H]([C@@H](C)CC)NC(=O)[C@H]([C@@H](C)O)NC(=O)[C@H](CC(=O)O)NC1=O [[Lys16, Thr21]ShK-amide] | 2.98 nM | 1.55 nM | 0.058 nM |  | 
4 | CC[C@H](C)[C@@H]1NC(=O)[C@H]([C@@H](C)O)NC(=O)[C@H](CC(=O)O)NC(=O)[C@H](CCC(=O)O)NC(=O)[C@@H](NC(=O)[C@H](CO)NC(=O)[C@@H](N)CCCNC(=N)N)CSSC[C@@H](C(=O)N[C@@H](C)C(=O)O)NC(=O)[C@H]([C@@H](C)O)NC(=O)CNC(=O)[C@@H]2CSSC[C@@H]3NC(=O)[C@H](CCCCN)NC(=O)[C@H](Cc4ccccc4)NC(=O)[C@H](C)NC(=O)[C@H]([C@@H](C)O)NC(=O)[C@H](CSSC[C@H](NC(=O)[C@H](Cc4ccccc4)NC(=O)[C@H](CO)NC(=O)[C@H](CC(C)C)NC(=O)[C@H](CCCNC(=N)N)NC(=O)[C@H](Cc4ccc(O)cc4)NC(=O)[C@H](CCCCN)NC(=O)[C@H](CCC(N)=O)NC(=O)[C@H](CO)NC(=O)[C@H](Cc4c[nH]cn4)NC(=O)[C@H](CCCCN)NC3=O)C(=O)N[C@@H](CCCNC(=N)N)C(=O)N[C@@H](CCCCN)C(=O)N[C@@H]([C@@H](C)O)C(=O)N2)NC(=O)[C@H](CCCNC(=N)N)NC(=O)[C@H](CO)NC(=O)[C@H](CCCCN)NC(=O)[C@@H]2CCCN2C1=O [[Glu4,Lys16,Gln21]ShK-Ala] | 0.265 nM | 0.137 nM | 26.4 nM |  | 
5 | CC[C@H](C)[C@@H]1NC(=O)[C@H]([C@@H](C)O)NC(=O)[C@H](CC(=O)O)NC(=O)[C@H](CCC(=O)O)NC(=O)[C@@H](NC(=O)[C@H](CO)NC(=O)[C@@H](N)CCCNC(=N)N)CSSC[C@@H](C(=O)O)NC(=O)[C@H]([C@@H](C)O)NC(=O)CNC(=O)[C@@H]2CSSC[C@@H]3NC(=O)[C@H](CCC(N)=O)NC(=O)[C@H](Cc4ccccc4)NC(=O)[C@H](C)NC(=O)[C@H]([C@@H](C)O)NC(=O)[C@H](CSSC[C@H](NC(=O)[C@H](Cc4ccccc4)NC(=O)[C@H](CO)NC(=O)[C@H](CC(C)C)NC(=O)[C@H](CCCNC(=N)N)NC(=O)[C@H](Cc4ccc(O)cc4)NC(=O)[C@H](CCCCN)NC(=O)[C@H](CCSC)NC(=O)[C@H](CO)NC(=O)[C@H](Cc4c[nH]cn4)NC(=O)[C@H](CCCCN)NC3=O)C(=O)N[C@@H](CCCNC(=N)N)C(=O)N[C@@H](CCCCN)C(=O)N[C@@H]([C@@H](C)O)C(=O)N2)NC(=O)[C@H](CCCNC(=N)N)NC(=O)[C@H](CO)NC(=O)[C@H](CCCCN)NC(=O)[C@@H]2CCCN2C1=O [[Glu4]ShK] |  | 0.031 nM | 0.07 nM | 0.049 nM | 
6 | CCCC[C@@H]1NC(=O)[C@H](CO)NC(=O)[C@H](Cc2c[nH]cn2)NC(=O)[C@H](CCCCN)NC(=O)[C@@H]2CSSC[C@@H]3NC(=O)[C@H]([C@@H](C)O)NC(=O)[C@H](CCCCN)NC(=O)[C@H](CCCNC(=N)N)NC(=O)[C@H](CSSC[C@H](NC(=O)[C@H](CCCNC(=N)N)NC(=O)[C@H](CO)NC(=O)[C@H](CCCCN)NC(=O)[C@@H]4CCCN4C(=O)[C@H]([C@@H](C)CC)NC(=O)[C@H]([C@@H](C)O)NC(=O)[C@H](CC(=O)O)NC(=O)[C@H]([C@@H](C)CC)NC(=O)[C@@H](NC(=O)[C@H](CO)NC(=O)[C@@H](N)CCCNC(=N)N)CSSC[C@@H](C(=O)N[C@@H](CC(=O)O)C(N)=O)NC(=O)[C@H]([C@@H](C)O)NC(=O)CNC3=O)C(=O)N[C@@H]([C@@H](C)O)C(=O)N[C@@H](C)C(=O)N[C@@H](Cc3ccccc3)C(=O)N[C@@H](CCCCN)C(=O)N2)NC(=O)[C@H](Cc2ccccc2)NC(=O)[C@H](CO)NC(=O)[C@H](CC(C)C)NC(=O)[C@H](CCCNC(=N)N)NC(=O)[C@H](Cc2ccc(O)cc2)NC(=O)[C@H](CCCCN)NC1=O [[Lys16, Nle21]ShK-Asp-amide] | 0.403 nM | 0.295 nM | 0.39 nM |  | 
7 | CCCC[C@@H]1NC(=O)[C@H](CO)NC(=O)[C@H](Cc2c[nH]cn2)NC(=O)[C@H](CCCCN)NC(=O)[C@@H]2CSSC[C@@H]3NC(=O)[C@H]([C@@H](C)O)NC(=O)[C@H](CCCCN)NC(=O)[C@H](CCCNC(=N)N)NC(=O)[C@H](CSSC[C@H](NC(=O)[C@H](CCCNC(=N)N)NC(=O)[C@H](CO)NC(=O)[C@H](CCCCN)NC(=O)[C@@H]4CCCN4C(=O)[C@H]([C@@H](C)CC)NC(=O)[C@H]([C@@H](C)O)NC(=O)[C@H](CC(=O)O)NC(=O)[C@H]([C@@H](C)CC)NC(=O)[C@@H](NC(=O)[C@H](CO)NC(=O)[C@@H](N)CCCNC(=N)N)CSSC[C@@H](C(N)=O)NC(=O)[C@H]([C@@H](C)O)NC(=O)CNC3=O)C(=O)N[C@@H]([C@@H](C)O)C(=O)N[C@@H](C)C(=O)N[C@@H](Cc3ccccc3)C(=O)N[C@@H](CCCCN)C(=O)N2)NC(=O)[C@H](Cc2ccccc2)NC(=O)[C@H](CO)NC(=O)[C@H](CC(C)C)NC(=O)[C@H](CCCNC(=N)N)NC(=O)[C@H](Cc2ccc(O)cc2)NC(=O)[C@H](CCCCN)NC1=O [[Lys16, Nle21]ShK-amide] | 1.1 nM | 0.823 nM | 0.153 nM |  | 9.09
8 | CC[C@H](C)[C@@H]1NC(=O)[C@H]([C@@H](C)O)NC(=O)[C@H](CC(=O)O)NC(=O)[C@H](CCC(=O)O)NC(=O)[C@@H](NC(=O)[C@H](CO)NC(=O)[C@@H](N)CCCNC(=N)N)CSSC[C@@H](C(N)=O)NC(=O)[C@H]([C@@H](C)O)NC(=O)CNC(=O)[C@@H]2CSSC[C@@H]3NC(=O)[C@H](CCCCN)NC(=O)[C@H](Cc4ccccc4)NC(=O)[C@H](C)NC(=O)[C@H]([C@@H](C)O)NC(=O)[C@H](CSSC[C@H](NC(=O)[C@H](Cc4ccccc4)NC(=O)[C@H](CO)NC(=O)[C@H](CC(C)C)NC(=O)[C@H](CCCNC(=N)N)NC(=O)[C@H](Cc4ccc(O)cc4)NC(=O)[C@H](CCCCN)NC(=O)[C@H](CO)NC(=O)[C@H](CO)NC(=O)[C@H](Cc4c[nH]cn4)NC(=O)[C@H](CCCCN)NC3=O)C(=O)N[C@@H](CCCNC(=N)N)C(=O)N[C@@H](CCCCN)C(=O)N[C@@H]([C@@H](C)O)C(=O)N2)NC(=O)[C@H](CCCNC(=N)N)NC(=O)[C@H](CO)NC(=O)[C@H](CCCCN)NC(=O)[C@@H]2CCCN2C1=O [[Glu4, Lys16,Ser21]ShK-amide] | 1.99 nM | 0.86 nM | 0.098 nM |  | 
